Test results reported in publication PMC6444592, “Citrullination of HP1γ chromodomain affects association with chromatin” (Epigenetics & Chromatin, 2019).

Tested on: H3K9me3(1–16) peptides
Test: peptide pulldown assay
Type: binding
Conditions: 300 mM NaCl HBS-EP; Coomassie gel; n = 3 (p values 0.021, 0.008; ns 0.181)
Method: H3K9me3 or unmethylated H3(1–16) peptides, linked to Dynabeads MyOne streptavidin T1 (Thermo Fisher Scientific), were used in pulldown assays with eluted GST-HP1 in HBS-EP (300 mM NaCl, 10 mM HEPES KOH pH 7.4, 5 mM EDTA and 0.2% NP-40). Pulldown assays were performed in 300 mM NaCl HBS-EP as previously described. Samples were resuspended in 2 × Laemmli buffer and resolved by SDS-PAGE followed by Coomassie-blue staining. Images were quantified using ImageJ software.

## HP1γR38/9A: HP1γ with alanine substitutions at amino acids 38 and 39 to mimic citrullination
  binding in pulldown, in words: significantly reduced
